IC50 data for 55 compounds are collected here from US12240840B2, “Amide-substituted heterocyclic compounds for the treatment of conditions related to the modulation of IL-12, IL-23 and/or IFN-alpha” (BRISTOL-MYERS SQUIBB COMPANY, priority 2018, dated 2025).

This experiment concerns IFNα-induced pSTAT5 (pY694) in CD3 positive cells of human whole blood. The experiment can be described thus: IFNα-Induced STAT Phosphorylation in Human Whole Blood. The class given is cell-based. The conditions noted are these: Homo sapiens, 1 h compound incubation, 1000 U/mL recombinant human IFNα A/D for 15 min, pSTAT5 in CD3 positive population, read-out: Human WB IFNα-Induced Stat Phosph. (IC50). The gist of the method: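 Read-out is median fluorescence intensity of pSTAT5 (pY694) in the CD3-positive gate, by flow cytometry after fix/lyse and permeabilization. Before that, whole human blood anticoagulated with EDTA or ACD-A received compound for an hour and 1000 U/mL IFNα A/D for 15 min.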

Molecules are shown by their SMILES. A value given as a limit tells only on which side of the number the result lay.

As for `[2H]C([2H])([2H])NC(=O)c1cnc(NC(=O)C2CC2)cc1Nc1cccc(-c2noc(CN3CCN(C(=O)OC)CC3)n2)c1OC` [Example 92], the IC50 – broadly, the point on the concentration scale where inhibition reaches its midpoint – was 0.03 µM.

`[2H]C([2H])([2H])NC(=O)c1nnc(NC(=O)C2CC2)cc1Nc1cccc(-c2nc(CNC(=O)CN3CCN(C(=O)OC(C)(C)C)CC3)no2)c1OC` [Example 161]: the IC50 came out at 9.42 µM.

For `[2H]C([2H])([2H])NC(=O)c1nnc(NC(=O)C2CC2)cc1Nc1cccc(-c2nc(CN3CCN(C(=O)c4cccnc4)CC3)no2)c1OC` [Example 131], the IC50 came out at 0.74 µM. With `COc1c(Nc2cc(NC(=O)C3CC3)nnc2C(N)=O)cccc1-c1ncc(CC(=O)N(C)C)s1` [Example 243] the figure was 0.09 µM; with `[2H]C([2H])([2H])NC(=O)c1nnc(NC(=O)C2CC2)cc1Nc1cccc(-c2cc(C(=O)N(C)CC)n(C)n2)c1OC` [Example 539], 0.12 µM. With `[2H]C([2H])([2H])NC(=O)c1nnc(NC(=O)C2CC2)cc1Nc1cccc(-c2nc([C@@H](C)NC(C)=O)no2)c1OC` [Example 194] the figure was 0.16 µM.

On to `[2H]C([2H])([2H])NC(=O)c1nnc(Nc2cc(C)n(C)n2)cc1Nc1cc(F)cc(-c2cc(C(=O)N(C)C)n(C)n2)c1OC` [Example 548], for which the IC50 is 0.17 µM. As to `[2H]C([2H])([2H])NC(=O)c1nnc(NC(=O)C2CC2)cc1Nc1cccc(-c2ncc(C(=O)N3CCN(CCO)CC3)s2)c1OC` [Example 269], the IC50 was determined as 0.04 µM.

On to `COc1c(Nc2cc(N)nnc2C(N)=O)cccc1-c1noc(CN2CCOCC2)n1` [Example 107], for which the concentration for half-maximal inhibition (IC50) was 0.82 µM.

With `[2H]C([2H])([2H])NC(=O)c1cnc(NC(=O)CC)cc1Nc1cccc(-c2noc(COCC)n2)c1OC` [Example 87], the IC50 amounted to 0.46 µM. With `[2H]C([2H])([2H])NC(=O)c1nnc(NC(=O)C2CC2)cc1Nc1cccc(-c2nc(CC)no2)c1OC` [Example 121] the figure was over 10 µM; with `[2H]C([2H])([2H])NC(=O)c1nnc(NC(=O)C2CC2)cc1Nc1cccc(-c2noc(C(=O)NCCOC)n2)c1OC` [Example 19], 0.25 µM; with `[2H]C([2H])([2H])NC(=O)c1nnc(NC(=O)C2CC2)cc1Nc1cccc(-c2nc(C)c(C(=O)NC(C)C)s2)c1OC` [Example 364], 0.44 µM. With `[2H]C([2H])([2H])NC(=O)c1nnc(NC(=O)C2CC2)cc1Nc1cccc(-c2noc(C(CC)C(=O)N3CCOCC3)n2)c1OC` (stereo not shown) [Example 45] the figure was 0.16 µM; with `[2H]C([2H])([2H])NC(=O)c1nnc(NC(=O)C2CC2)cc1Nc1cccc(-c2noc(CNC(C)=O)n2)c1OC` [Example 31], 0.38 µM; with `[2H]C([2H])([2H])NC(=O)c1nnc(NC(=O)C2CC2)cc1Nc1cccc(-c2nc(CN3CCN(C)CC3)no2)c1OC` [Example 180], 0.2 µM. With `[2H]C([2H])([2H])NC(=O)c1nnc(Nc2cnc(OC)cn2)cc1Nc1cccc(-c2csc(C(=O)NCCOC)n2)c1OC` [Example 570] the figure was 0.93 µM. `[2H]C([2H])([2H])NC(=O)c1cnc(NC(=O)C2CC2)cc1Nc1cccc(-c2nc(C(C)N3CCN(C(C)=O)CC3)no2)c1OC` (stereo not shown) [Example 222]: the IC50 came to 1.48 µM.

For the compound `COc1c(Nc2cc(NC(=O)C3CC3)nnc2C(N)=O)cccc1-c1ncc(C(=O)NCCC2CCCN2C)s1` (stereo not shown) [Example 247], the IC50 worked out at 0.1 µM.

Turning to `[2H]C([2H])([2H])NC(=O)c1nnc(NC(=O)C2CC2)cc1Nc1cccc(-c2nc([C@@H](C)NC(=O)OC(C)(C)C)no2)c1OC` [Example 193], the IC50 came out at 7.36 µM.

Take `[2H]C([2H])([2H])NC(=O)c1nnc(NC(=O)C2CC2)cc1Nc1cccc(-c2nc([C@@H](NC(C)=O)[C@@H](C)O)no2)c1OC` [Example 187]: the IC50 was 1.13 µM. Regarding `[2H]C([2H])([2H])NC(=O)c1nnc(NC(=O)C2CC2)cc1Nc1cccc(-c2nc(C)c(C(=O)N3CCOCC3)s2)c1OC` [Example 356], the IC50 worked out at 0.08 µM. With `[2H]C([2H])([2H])NC(=O)c1nnc(NC(=O)C2CC2)cc1Nc1cccc(-c2cnn(CC(=O)NCC)n2)c1OC` [Example 427] the figure was 0.09 µM; with `[2H]C([2H])([2H])NC(=O)c1nnc(NC(=O)C2CC2)cc1Nc1cccc(-c2cc(C(=O)NC(COC)COC)n(C)n2)c1OC` [Example 540], 0.46 µM; with `COc1c(Nc2cc(NC(=O)C3CC3)nnc2C(N)=O)cccc1-c1ncc(CN2CCOCC2)s1` [Example 401], 0.18 µM. With `[2H]C([2H])([2H])NC(=O)c1nnc(NC(=O)C2CC2)cc1Nc1cccc(-c2nc(CN3CC4CN(C(=O)OC(C)(C)C)CC4C3)no2)c1OC` (stereo not shown) [Example 231], the IC50 amounted to 1.75 µM. With `[2H]C([2H])([2H])NC(=O)c1nnc(NC(=O)C2CC2)cc1Nc1cc(F)cc(-c2cc(C(=O)N3CCNC(=O)C3)n(C)n2)c1OC` [Example 519] the figure was 0.57 µM; with `[2H]C([2H])([2H])NC(=O)c1nnc(NC(=O)C2CC2)cc1Nc1cccc(-c2ncc(C(=O)NCCCN3CCN(C(C)C)CC3)s2)c1OC` [Example 341], 0.11 µM; with `[2H]C([2H])([2H])NC(=O)c1nnc(NC(=O)C2CC2)cc1Nc1cccc(-c2nc(CC(=O)NCCOC)no2)c1OC` [Example 176], 0.45 µM. As to `CCS(=O)(=O)NCc1nc(-c2cccc(Nc3cc(NC(=O)C4CC4)nnc3C(N)=O)c2OC)no1` [Example 48], the IC50 is 0.025 µM.

In the case of `[2H]C([2H])([2H])NC(=O)c1nnc(NC(=O)C2CC2)cc1Nc1cccc(-c2nc(CNC(=O)OC(C)(C)C)no2)c1OC` [Example 142], the IC50 was determined as 5.31 µM. With `[2H]C([2H])([2H])NC(=O)c1nnc(NC(=O)C2CC2)cc1Nc1cccc(-c2noc(C(CC)C(=O)NCCOC)n2)c1OC` (stereo not shown) [Example 41] the figure was 0.06 µM; with `[2H]C([2H])([2H])NC(=O)c1nnc(NC(=O)C2CC2)cc1Nc1cccc(-c2nc(CN3CCN(S(C)(=O)=O)CC3)no2)c1OC` [Example 128], 0.03 µM.

With `[2H]C([2H])([2H])NC(=O)c1nnc(Nc2cc(C(C)(C)O)ccn2)cc1Nc1cccc(-c2cn(CCN3CCOCC3)nn2)c1OC` [Example 425], the IC50 came to 0.67 µM. For the compound `[2H]C([2H])([2H])NC(=O)c1nnc(NC(=O)C2CC2)cc1Nc1cccc(-c2nc([C@H](C)NC(C)=O)no2)c1OC` [Example 183], the IC50 was found to be 1.68 µM.

For `[2H]C([2H])([2H])NC(=O)c1nnc(NC(=O)C2CC2)cc1Nc1cccc(-c2cnn(CC(=O)NCCO)n2)c1OC` [Example 429], the IC50 came to 0.19 µM. With `COc1c(Nc2cc(N)nnc2C(N)=O)cccc1-c1noc(C(=O)NC2CCN(C)CC2)n1` [Example 116] the figure was 4.97 µM.

Regarding `[2H]C([2H])([2H])NC(=O)c1nnc(NC(=O)C2CC2)cc1Nc1cccc(-c2cc(C)nn2CCNC(=O)COC)c1OC` [Example 461], the IC50 was determined as 0.22 µM. With `[2H]C([2H])([2H])NC(=O)c1nnc(NC(=O)C2CC2)cc1Nc1cccc(-c2nc(CN(C)S(C)(=O)=O)no2)c1OC` [Example 169] the figure was 0.11 µM; with `[2H]C([2H])([2H])NC(=O)c1nnc(NC(=O)C2CC2)cc1Nc1cccc(-c2nc(CN(C)C(C)=O)no2)c1OC` [Example 173], 0.3 µM; with `[2H]C([2H])([2H])NC(=O)c1nnc(NC(=O)C2CC2)cc1Nc1cccc(-c2ncc(C(=O)NCCNC(=O)CC)s2)c1OC` [Example 240], 0.18 µM. With `CCS(=O)(=O)N(C)Cc1nc(-c2cccc(Nc3cc(NC(=O)C4CC4)nnc3C(N)=O)c2OC)no1` [Example 57] the figure was 0.009 µM. With `COc1c(Nc2cc(NC(=O)C3CC3)ncc2C(N)=O)cccc1-c1nc(CN2CCOCC2)no1` [Example 576, 6-(cyclopropanecarboxamido)-4-((2-methoxy-3-(3-(morpholinomethyl)-1,2,4-oxadiazol-5-yl)phenyl)amino)nicotinamide] the figure was 0.013 µM; with `COc1c(Nc2cc(NC(=O)C3CC3)nnc2C(N)=O)cccc1-c1ncc(C(=O)N(C)C)o1` [Example 413], 0.17 µM; with `[2H]C([2H])([2H])NC(=O)c1nnc(NC(=O)C2CC2)cc1Nc1cccc(-c2ncc(CC(=O)N(C)C)s2)c1OC` [Example 256], 0.13 µM. In the case of `COc1c(Nc2cc(NC(=O)C3CC3)nnc2C(N)=O)cccc1-c1ncc(C(=O)NC2CCC(N(C)C)CC2)s1` (stereo not shown) [Example 405], the concentration for half-maximal inhibition (IC50) was 0.09 µM. As for `[2H]C([2H])([2H])NC(=O)c1nnc(NC(=O)C2CC2)cc1Nc1cccc(-c2cc(C(=O)N3CNCC(=O)C3)n(C)n2)c1OC` [Example 532], the IC50 was found to be 0.47 µM. With `[2H]C([2H])([2H])NC(=O)c1nnc(NC(=O)C2CC2)cc1Nc1cccc(-c2cc(C(=O)NCCCN(C)C)n(C)n2)c1OC` [Example 537] the figure was 0.7 µM; with `[2H]C([2H])([2H])NC(=O)c1nnc(NC(=O)C2CC2)cc1Nc1cccc(-c2ncc(C(=O)NCC(C)N3CCCCC3)s2)c1OC` (stereo not shown) [Example 349], 0.07 µM; with `[2H]C([2H])([2H])NC(=O)c1nnc(NC(=O)C2CC2)cc1Nc1cc(F)cc(-c2cc(C(=O)N3CCS(=O)(=O)CC3)n(C)n2)c1OC` [Example 503], 0.86 µM. With `[2H]C([2H])([2H])NC(=O)c1nnc(NC(=O)C2CC2)cc1Nc1cccc(-c2nc(C)c(C(=O)N3CCC(N(C)C)CC3)s2)c1OC` [Example 354] the figure was 0.08 µM; with `COc1c(Nc2cc(NC(=O)C3CC3)ncc2C(N)=O)cccc1-c1cnn(CCNC(=O)OC(C)(C)C)n1` [Example 444], 2.13 µM; with `[2H]C([2H])([2H])NC(=O)c1nnc(NC(=O)C2CC2)cc1Nc1cccc(-c2noc(COC)n2)c1OC` [Example 72], 0.08 µM.

In the case of `COc1c(Nc2cc(NC(=O)C3CC3)nnc2C(N)=O)cccc1-c1noc(CNS(=O)(=O)C(C)C)n1` [Example 50], the IC50 worked out at 0.07 µM. With `[2H]C([2H])([2H])NC(=O)c1nnc(NC(=O)C2CC2)cc1Nc1cccc(-c2cc(C(=O)N3CCCC3)n(C)n2)c1OC` [Example 482] the figure was 0.15 µM.
